In patent US11053204B2, “Pyrimidinyloxy benzene derivatives as herbicides” (FMC Corporation, priority 2015, dated 2021):

How the values were obtained:
Assay type in all cases: in vivo
[1] = tested on: blackgrass (Alopecurus myosuroides); assay: Test C preemergence, plant response rating; details: Preemergence
Method in brief: (§1)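 Preemergence: seeds sown in loam–sand blend or silt loam and sprayed with test chemicals in a non-phytotoxic surfactant-containing solvent. Postemergence: potted plants at 2–18 cm (1–4-leaf stage) sprayed with the same formulation. After 13–15 d in greenhouse, visual rating versus controls on 0 (no effect) to 100 (complete control) scale.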

[2] = tested on: morningglory (Ipomoea coccinea); assay: Test C preemergence, plant response rating; details: Preemergence
Method in brief: as §1

[3] = tested on: waterhemp (common waterhemp, Amaranthus rudis); assay: Test C preemergence, plant response rating; details: Preemergence
Method in brief: as §1

[4] = tested on: foxtail, giant (giant foxtail, Setaria faberii); assay: Test C preemergence, plant response rating; details: Preemergence
Method in brief: as §1

[5] = tested on: ragweed (common ragweed, Ambrosia elatior); assay: Test C preemergence, plant response rating; details: Preemergence
Method in brief: as §1

[6] = tested on: crabgrass, large (large crabgrass, Digitaria sanguinalis); assay: Test C preemergence, plant response rating; details: Preemergence
Method in brief: as §1

soybean (Glycine max) = assay: Test C preemergence, plant response rating; details: Preemergence
Method in brief: as §1

[7] = tested on: oilseed rape (Brassica napus); assay: Test C preemergence, plant response rating; details: Preemergence
Method in brief: as §1

[8] = tested on: velvetleaf (Abutilon theophrasti); assay: Test C preemergence, plant response rating; details: Preemergence
Method in brief: as §1

[9] = tested on: nutsedge, yellow (yellow nutsedge, Cyperus esculentus); assay: Test C preemergence, plant response rating; details: Preemergence
Method in brief: as §1

[10] = tested on: lambsquarters (Chenopodium album); assay: Test C preemergence, plant response rating; details: Preemergence
Method in brief: as §1

corn (Zea mays) = assay: Test C preemergence, plant response rating; details: Preemergence
Method in brief: as §1

[11] = tested on: wheat (winter wheat, Triticum aestivum); assay: Test C preemergence, plant response rating; details: Preemergence
Method in brief: as §1

[12] = tested on: ryegrass, Italian (Italian ryegrass, Lolium multiflorum); assay: Test C preemergence, plant response rating; details: Preemergence
Method in brief: as §1

[13] = tested on: chickweed (common chickweed, Stellaria media); assay: Test C postemergence, plant response rating; details: for Chickweed plant response rating: scale 0 to 100 (0 no effect, 100 complete control)
Method in brief: as §1

[14] = tested on: morningglory (Ipomoea coccinea); assay: Test C postemergence, plant response rating; details: for Morningglory plant response rating: scale 0 to 100 (0 no effect, 100 complete control)
Method in brief: as §1

[15] = tested on: foxtail, giant (giant foxtail, Setaria faberii); assay: Test C postemergence, plant response rating; details: for Foxtail, Giant plant response rating: scale 0 to 100 (0 no effect, 100 complete control)
Method in brief: as §1

[16] = tested on: ducksalad (Heteranthera limosa); assay: Test B flooded paddy test, plant response rating; details: 250 g ai/ha; Flood; scale of 0 to 100 where 0 is no effect and 100 is complete control; 13 to 15 days
Method in brief: (§2)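 Test compounds are applied straight into paddy water held 3 cm above the soil surface, with that flood maintained for the whole test. After 13 to 15 days in the greenhouse, each species is scored visually relative to controls.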

rice (Oryza sativa) = assay: Test B flooded paddy test, plant response rating; details: 250 g ai/ha; Flood; scale of 0 to 100 where 0 is no effect and 100 is complete control; 13 to 15 days
Method in brief: as §2

[17] = tested on: barnyardgrass (Echinochloa crus-galli); assay: Test B flooded paddy test, plant response rating; details: 250 g ai/ha; Flood; scale of 0 to 100 where 0 is no effect and 100 is complete control; 13 to 15 days
Method in brief: as §2

[18] = tested on: sedge, umbrella (small-flower umbrella sedge, Cyperus difformis); assay: Test B flooded paddy test, plant response rating; details: 250 g ai/ha; Flood; scale of 0 to 100 where 0 is no effect and 100 is complete control; 13 to 15 days
Method in brief: as §2

`O=C(CCCC(F)(F)F)c1c(Oc2ncc(Cl)cn2)cccc1C(F)(F)F` [Compound 125] was tested, and the “Plant response rating, Blackgrass” value ([1]; 125 g ai/ha, scale of 0 to 100) was 90, the “Plant response rating, Blackgrass” value ([1]; 16 g ai/ha, scale 0 to 100) was 5 and the “Plant response rating, Blackgrass” value ([1]; 31 g ai/ha, scale 0 to 100) was 60. For the same compound, the “Plant response rating, Blackgrass” value ([1]; 62 g ai/ha, scale 0 to 100) was 60, the “Plant response rating, Morningglory” value ([2]; 125 g ai/ha, scale of 0 to 100) was 50 and the “Plant response rating, Morningglory” value ([2]; 31 g ai/ha, scale 0 to 100) was 10. The “Plant response rating, Morningglory” value ([2]; 62 g ai/ha, scale 0 to 100) was 10, the “Plant response rating, Waterhemp” value ([3]; 125 g ai/ha, scale of 0 to 100) was 100 and the “Plant response rating, Waterhemp” value ([3]; 31 g ai/ha, scale 0 to 100) was 100. For the same compound, the “Plant response rating, Waterhemp” value ([3]; 62 g ai/ha, scale 0 to 100) was 100, the “Plant response rating, Foxtail, Giant” value ([4]; 125 g ai/ha, scale of 0 to 100) was 100 and the “Plant response rating, Foxtail, Giant” value ([4]; 31 g ai/ha, scale 0 to 100) was 85. The “Plant response rating, Foxtail, Giant” value ([4]; 62 g ai/ha, scale 0 to 100) was 98, the “Plant response rating, Ragweed” value ([5]; 125 g ai/ha, scale of 0 to 100) was 35 and the “Plant response rating, Ragweed” value ([5]; 31 g ai/ha, scale 0 to 100) was 10. The “Plant response rating, Ragweed” value ([5]; 62 g ai/ha, scale 0 to 100) was 5, the “Plant response rating, Crabgrass, Large” value ([6]; 125 g ai/ha, scale of 0 to 100) was 100 and the “Plant response rating, Crabgrass, Large” value ([6]; 16 g ai/ha, scale 0 to 100) was 35. For the same compound, the “Plant response rating, Crabgrass, Large” value ([6]; 31 g ai/ha, scale 0 to 100) was 98, the “Plant response rating, Crabgrass, Large” value ([6]; 62 g ai/ha, scale 0 to 100) was 100 and the “Plant response rating, Soybean” value (soybean (Glycine max); 125 g ai/ha, scale of 0 to 100) was 20. For the same compound, the “Plant response rating, Soybean” value (soybean (Glycine max); 31 g ai/ha, scale 0 to 100) was 0, the “Plant response rating, Soybean” value (soybean (Glycine max); 62 g ai/ha, scale 0 to 100) was 0 and the “Plant response rating, Oilseed Rape” value ([7]; 125 g ai/ha, scale of 0 to 100) was 80. For the same compound, the “Plant response rating, Oilseed Rape” value ([7]; 31 g ai/ha, scale 0 to 100) was 5, the “Plant response rating, Oilseed Rape” value ([7]; 62 g ai/ha, scale 0 to 100) was 50 and the “Plant response rating, Velvetleaf” value ([8]; 125 g ai/ha, scale of 0 to 100) was 65. The “Plant response rating, Velvetleaf” value ([8]; 31 g ai/ha, scale 0 to 100) was 5, the “Plant response rating, Velvetleaf” value ([8]; 62 g ai/ha, scale 0 to 100) was 60 and the “Plant response rating, Nutsedge, Yellow” value ([9]; 125 g ai/ha, scale of 0 to 100) was 5. For the same compound, the “Plant response rating, Nutsedge, Yellow” value ([9]; 31 g ai/ha, scale 0 to 100) was 0, the “Plant response rating, Nutsedge, Yellow” value ([9]; 62 g ai/ha, scale 0 to 100) was 0 and the “Plant response rating, Lambsquarters” value ([10]; 125 g ai/ha, scale of 0 to 100) was 95. For the same compound, the “Plant response rating, Lambsquarters” value ([10]; 31 g ai/ha, scale 0 to 100) was 30, the “Plant response rating, Lambsquarters” value ([10]; 62 g ai/ha, scale 0 to 100) was 60 and the “Plant response rating, Corn” value (corn (Zea mays); 125 g ai/ha, scale of 0 to 100) was 5. The “Plant response rating, Corn” value (corn (Zea mays); 16 g ai/ha, scale 0 to 100) was 0, the “Plant response rating, Corn” value (corn (Zea mays); 31 g ai/ha, scale 0 to 100) was 0 and the “Plant response rating, Corn” value (corn (Zea mays); 62 g ai/ha, scale 0 to 100) was 5. The “Plant response rating, Wheat” value ([11]; 125 g ai/ha, scale of 0 to 100) was 5, the “Plant response rating, Wheat” value ([11]; 31 g ai/ha, scale 0 to 100) was 0 and the “Plant response rating, Wheat” value ([11]; 62 g ai/ha, scale 0 to 100) was 0. The “Plant response rating, Ryegrass, Italian” value ([12]; 125 g ai/ha, scale of 0 to 100) was 85, the “Plant response rating, Ryegrass, Italian” value ([12]; 31 g ai/ha, scale 0 to 100) was 30 and the “Plant response rating, Ryegrass, Italian” value ([12]; 62 g ai/ha, scale 0 to 100) was 40. For the same compound, the “Plant response rating, Chickweed” value ([13]; 16 g ai/ha, scale of 0 to 100) was 70, the “Plant response rating, Chickweed” value ([13]; 31 g ai/ha, scale 0 to 100) was 75 and the “Chickweed plant response rating” value ([13]; 62 g ai/ha) was 90. The “Chickweed plant response rating” value ([13]; 125 g ai/ha) was 98, the “Plant response rating, Morningglory” value ([14]; 16 g ai/ha, scale of 0 to 100) was 20 and the “Plant response rating, Morningglory” value ([14]; 31 g ai/ha, scale 0 to 100) was 45. For the same compound, the “Morningglory plant response rating” value ([14]; 62 g ai/ha) was 50, the “Morningglory plant response rating” value ([14]; 125 g ai/ha) was 75 and the “Plant response rating, Foxtail, Giant” value ([15]; 16 g ai/ha, scale of 0 to 100) was 10. For the same compound, the “Plant response rating, Foxtail, Giant” value ([15]; 31 g ai/ha, scale 0 to 100) was 10, the “Foxtail, Giant plant response rating” value ([15]; 62 g ai/ha) was 10 and the “Foxtail, Giant plant response rating” value ([15]; 125 g ai/ha) was 25. For the same compound, the “Plant response rating, Ducksalad” value [16] was 70, the “Plant response rating, Rice” value (rice (Oryza sativa)) was 35 and the “Plant response rating, Barnyardgrass” value [17] was 45. The “Plant response rating, Sedge, Umbrella” value [18] was 90.
